Entries after “also recorded” stand apart in the source; their conditions may differ.
Columns and labels:
Type in all cases: cell-based
[1] = tested on: deoxygenation-activated cation conductance in human SS red cells; assay: On-cell patch clamp of deoxygenation-activated cation conductance, symmetric Na methanesulfonate
Method: (§1) Blood cell preparation: Human SS and AA blood was obtained under IRB-approved protocols of Children's Hospital and Beth Israel Deaconess Medical Center. After buffy coat removal and 5 washes in standard human red cell wash solution containing (in mM) 150 choline Cl, 1 MgCl, and 10 Tris-MOPS, pH 7.4, red cells were resuspended in storage solution containing (in mM) 145 KCl, 15 NaCl, and 10 HEPES, pH 7.4, then kept at 4° C. until used. Human red cells allowed to settle on coverslips were mounted on an inverted microscope in a 200 μl open chamber (WPI, Sarasota, Fla.) and superfused 15 min at room temperature by bath solution containing (in mM) 150 Na methanesulfonate, 10 Na EDTA, and 10 Na HEPES, pH 7.4.
Mouse red cells allowed to settle on coverslips were superfused 15 min with bath solution containing (in mM) either 150 mM Na methanesulfonate, 10 Na EDTA, and 10 Na HEPES, pH 7.4; or 140 NaCl, 4 KCl, 1CaCl2, 1 MgCl2, 10 Na HEPES, pH 7.4. Deoxygenation was achieved by switching superfusate to the same solution gassed ≧30 min prior to the experiment with 100% N2, and by flushing of the perfusion chamber with N2 during the deoxygenation period. The resulting bath pO2 was 18 mm Hg as measured by oxygen electrode (WPI). In the experiments of FIG. 1, deoxygenated cells were subsequently re-oxygenated by exposure to the same superfusate equilibrated with room air.
(§2) Washed human or mouse red cells in solution containing (in mM) 140 NaCl, 5 KCl, 1 CaCl2, 1 MgCl2, 10 Na HEPES, pH 7.4 were exposed for 1 hr on a rotary platform in a 37° C. incubator to 25 ppm carbon monoxide (CO) in 5% CO2. CO-exposed cells were then subjected to patch clamp or to calcium imaging experiments within 60 min after return to room air, using the solutions indicated.
(§3) On-cell patch clamp: Borosilicate pipettes (Corning 7052) pulled with a Narishige two stage puller or a Sutter P97 puller and fire-polished to resistances of 10-20 MΩ were front-filled and then backfilled. Symmetric bath and pipette solutions for studies of seal resistance stability during reversibility tests of the deoxygenation-activated conductance in SAD mouse red cells were (in mM) 140 NaCl, 4 KCl, 1 CaCl2, 1 MgCl2, 10 Na HEPES, pH 7.4. These conditions yielded tight seals in 13% of patch attempts on SAD cells. For study of deoxygenation-induced monovalent cation permeation in the absence of bath Ca^2+ and Mg^2+ recorded in SAD and Berkeley mouse cells and in human cells, symmetric bath and pipette solutions contained (in mM) 150 Na methanesulfonate, 10 Na EDTA, and 10 Na HEPES, pH 7.4. These conditions yielded tight seals in 16% of patch attempts on SAD mouse red cells, 26% of attempts on Berkeley mouse cells, and 30% of attempts on human SS cells. For study of Ca^2+ permeation in human SS cells, bath and pipette solutions contained (in mM) 100 CaCl2, 10 Na HEPES, pH 7.4. These conditions yielded tights seals on 44% of attempts. For all conditions tested in human red cells, 70% of tight seals were sustained through the solution change accompanying deoxygenation to allow recording of current activity.
(§4) On-cell patch currents were recorded with the Axopatch 1-D amplifier (Axon Instruments/Molecular Devices, Sunnyvale, Calif.). Holding potential was −Vp=−50 mV (expressed as the negative of the pipette potential (e.g., equivalent to the intracellular potential with respect to the pipette). To determine current-voltage relationships (I-V curves) in Fetchex or Clampex (PCLAMP, Axon Instruments), the realtime control window in gap-free mode was used to record current traces of 10-30 sec duration at holding potentials ranging from −100 to +100 mV, in 25 mV increments. The bath reference electrode was a silver chloride wire with a 3 M KCl agar bridge. Data was filtered at 500 Hz, digitized at 2 kHz by Clampex, and analyzed offline by Fetchan and Pstat or by Clampfit subroutines of PCLAMP. Holding potentials in on-cell patch experiments were expressed as −Vp, the negative of the pipette potential.

[2] = tested on: human SS red cells; assay: Fluo-3 fluorescence measurement of [Ca2+]i during deoxygenation, human SS cells; details: CO preincubation, no continued CO exposure
Method: as §1, §2
(§5) Fluorescence measurements of cytosolic [Ca^2+] ([Ca^2+]i): After removal of plasma and buffy coat by aspiration, human or mouse red cells were washed three times at room temperature and suspended in modified Hank's solution containing (in mM), 137 NaCl, 5.4 KCl, 1 CaCl2, 1 MgCl2, 0.8 NaK phosphate, 5.6 glucose, and 10 Na HEPES, pH 7.4. Dilute cell suspensions were settled on polylysine-coated coverslips forming the bottom of an open perfusion chamber (2.5 cm diameter, 1 cm depth) and washed again 3 times.
Measurement of relative changes in [Ca^2+]i by Fluo-3 fluorescence emission was previously validated in intact human (Yang et al. 2000, Blood, 95(7):2421-2425; Andrews et al. 2002, Blood, 199(9):3392-3399) and mouse red cells (Akel et al. 2007, Amer. J. Physiol., 292(5):C1759-1767). […] Fluorescence emission (proportional to [Ca^2+]i) from a 535ds20 bandpass filter was collected from all attached single cells within the arbitrarily selected visual field. […]
(§6) Fluo-3 fluorescence from attached cells on each coverslip was recorded 60 sec in room air and then for 10 min after onset of perfusion chamber flushing with humidified 100% N2. The normalized increase in Fluo-3 fluorescence in SS cells subjected to this deoxygenation procedure was indistinguishable from that observed during superfusion of cells in a closed perfusion chamber via syringe pump with bath previously bubbled for 60 min with 100% N2 (n=62 cells from 2 SS patients, not shown). The y-axis value of 0% change in Fluo-3 fluorescence intensity represented mean intensity recorded from all cells within the coverslip visual field during the 60 sec prior to deoxygenation.

[3] = molecular target: T1, KCa3.1 (Homo sapiens, UniProt O15554)
T1 construct: KCa3.1 activity stimulated in intact human AA cells by 1 μM A23187; endogenous in cells; host or cells: intact human AA red blood cells

[4] = tested on: LPA-induced cation conductance in human SS red cells; assay: On-cell patch clamp of LPA-induced cation conductance
From the text: as §3, §4
Deoxygenation-activated flickering cation conductance observed in human SS cells contrasted with the prolonged channel openings produced by 5 μM LPA (FIG. 10A). In SS cells, LPA increased NPo […], from 0.04±0.03 to 0.82±0.18 (n=8, p<0.001; Na methanesulfonate in bath and pipette, −Vp=−50 mV; FIG. 10B). LPA-induced cation conductance was 96% inhibited by 100 uM dipyridamole in the pipette, and 97% inhibited by 1 μM GsMTx-4 in the pipette (both n=4).

[5] = tested on: SAD sickle mouse red cells; assay: Fluo-3 fluorescence measurement of [Ca2+]i during deoxygenation, SAD cells
Method: Blood was withdrawn by cardiac puncture or from the tail vein of C57B16/J wildtype mice, SAD sickle mice, or Berkeley sickle mice into heparinized syringes by IACUC-approved protocols of Beth Israel Deaconess Medical Center. Buffy coat-depleted cells were washed 5 times in standard mouse red cell wash solution containing (in mM) 172 choline Cl, 10 sucrose, 10 Na Tris-MOPS, pH 7.4, resuspended in storage solution, and kept at 4° C. until use.
as §5
Measurement of relative changes in [Ca^2+]i by Fluo-3 fluorescence emission was previously validated in intact human (Yang et al. 2000, Blood, 95(7):2421-2425; Andrews et al. 2002, Blood, 199(9):3392-3399) and mouse red cells (Akel et al. 2007, Amer. J. Physiol., 292(5):C1759-1767). Attached red cells were loaded in the dark with the fluorescent non-ratiometric Ca^2+ indicator Fluo-3-AM (10 μM, Molecular Probes, Eugene, Oreg.) at 37° C. for 1 hr, then washed and incubated 15 min further to allow de-esterification of intracellular dye. The open perfusion chamber containing dye-loaded cells was mounted on an Olympus IMT-2 inverted epifluorescence microscope equipped with CoolSNAP CCD camera (Photometrics, Tucson, Ariz.). Fluo-3 in cells imaged through a 60× objective was excited by mercury-xenon illumination passed through a 495ds20 filter. Fluorescence emission (proportional to [Ca^2+]i) from a 535ds20 bandpass filter was collected from all attached single cells within the arbitrarily selected visual field. Emission image acquisition was controlled by a Metafluor digital imaging system (Universal Imaging, West Chester, Pa.).
as §6

T1 sequence (O15554 whole entry): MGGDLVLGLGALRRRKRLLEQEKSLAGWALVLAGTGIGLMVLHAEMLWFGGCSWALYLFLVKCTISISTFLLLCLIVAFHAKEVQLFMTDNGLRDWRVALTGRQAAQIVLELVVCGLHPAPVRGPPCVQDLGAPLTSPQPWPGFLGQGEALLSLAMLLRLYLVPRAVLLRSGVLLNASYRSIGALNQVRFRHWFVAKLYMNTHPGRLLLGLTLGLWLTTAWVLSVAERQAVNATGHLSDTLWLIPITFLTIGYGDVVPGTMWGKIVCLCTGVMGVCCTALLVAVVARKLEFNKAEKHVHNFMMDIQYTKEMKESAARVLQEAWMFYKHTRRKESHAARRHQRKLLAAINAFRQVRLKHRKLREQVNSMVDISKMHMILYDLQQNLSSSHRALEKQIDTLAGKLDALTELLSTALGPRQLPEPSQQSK

## [C-]#[O+] [CO, carbon monoxide]
[1]; CO-pretreated cells, n=4
  NPo upon deoxygenation: 0.0625±0.0375
  Normoxic NPo: 0.0377±0.0375
[1]; prior CO exposure of SS cells
  effect on activation of conductance upon deoxygenation: prevented
[2]
  effect on [Ca2+]i elevation by deoxygenation: blocked; also recorded: inhibited

## O=S(=O)(O)c1cc(N=C=S)ccc1C=Cc1ccc(N=C=S)cc1S(=O)(=O)O [DIDS, 4,4′-diisothiocyanatostilbene-2,2′-disulfonic acid]
[1]; 100 μM in the pipette
  effect on deoxygenation-induced activation of cation conductance: prevented; also recorded: blocked
[1]; 100 μM in the pipette, n=4
  NPo after deoxygenation (hypoxic): 0.001±0.001
  Normoxic NPo: 0.002±0.002

## Clc1ccccc1C(c1ccccc1)(c1ccccc1)n1ccnc1 [clotrimazole, reference compound]
[3]
  effect on A23187-stimulated cell shrinkage: completely inhibited

## OCCN(CCO)c1nc(N2CCCCC2)c2nc(N(CCO)CCO)nc(N3CCCCC3)c2n1 [dipyridamole]
[1]; 100 μM in the pipette
  effect on deoxygenation-induced activation of cation conductance: prevented
[1]; 100 μM in the pipette, n=4
  NPo after deoxygenation (hypoxic): 0.004±0.002
  Normoxic NPo: 0.00
[4]; 100 μM in the pipette
  effect on LPA-induced increase in NPo: prevented
[4]; Homo sapiens, 100 uM in the pipette, 5 μM LPA, n=4
  inhibition at 100 µM: 96%

## [Na+].[Na+].[Na+].[O]=[V]([O-])([O-])[O-] [vanadate, Na vanadate]
[5]; 50 μM in bath, acute deoxygenation
  effect on deoxygenation-induced [Ca2+]i elevation: enhanced; also recorded: further elevated
[5]; 50 μM, continued presence
  time to plateau [Ca2+]i after deoxygenation: < 2 min
[5]; 50 μM, 5 min normoxic preincubation of SAD cells
  [Ca2+]i-dependent Fluo-3 emission increase: 12.8±1.8%
[5]; 50 μM, after ~4 min longer at plateau
  late [Ca2+]i relative to plateau: twice the previous plateau value
